# Test results taken from PubChem BioAssay AID2060493 (Molecular Pharmacology Branch, DTP, NCI, 2025).
# pIC50: −log10 of the molar value.
# Tested on: 616215-338-R-J1-PDC tumor spheroids, viability
# Assay: Anticancer human tumor 616215-338-R-J1-PDC patient-derived colon adenocarcinoma cell line growth inhibition [GQUAD]
# Conditions: spheroids with HUVEC and MSC; for pIC50: curve of first compound; for viability, T/C: stronger effect = lower value
# Summary of the method: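 Tumor cells were grown as complex spheroids with HUVEC endothelial cells and mesenchymal stem cells as stroma. G-quadruplex stabilizers were combined with targeted agents over half-log dilutions from near the clinical Cmax, or from 10 microM.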
# [1] = second compound 0.0316 µM, first compound 0.0316 µM
# [2] = second compound 0.0316 µM, first compound 0.316 µM
# [3] = second compound 0.1 µM, first compound 0.0316 µM
# [4] = second compound 0.1 µM, first compound 0.316 µM
# [5] = second compound 0.316 µM, first compound 0.0316 µM
# [6] = second compound 0.316 µM, first compound 0.316 µM
# [7] = second compound 1 µM, first compound 0.0316 µM
# [8] = second compound 1 µM, first compound 0.316 µM
# [9] = second compound 3.16 µM, first compound 0.0316 µM
# [10] = second compound 3.16 µM, first compound 0.316 µM
# [11] = second compound 10 µM, first compound 0.0316 µM
# [12] = second compound 10 µM, first compound 0.316 µM
# 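Note: spheroids exposed to agents for 7 days before readout.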
# 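Throughout, for viability, T/C: percent viability relative to DMSO vehicle control wells taken as 100%.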
smiles,measurement,setting,value
C=CC(=O)N1CCN(c2nc(=O)n(-c3c(C)ccnc3C(C)C)c3nc(-c4c(O)cccc4F)c(F)cc23)C(C)C1 (centres undefined) + CN(C)c1ccc(Nc2c3ccc(NC(=O)CCN4CCCC4)cc3nc3cc(NC(=O)CCN4CCCC4)ccc23)cc1,pIC50,second compound 0.0316 µM,< 5.00
same,pIC50,second compound 0.1 µM,< 5.00
same,pIC50,second compound 0.316 µM,< 5.00
same,pIC50,second compound 1 µM,< 5.00
same,pIC50,second compound 3.16 µM,< 5.00
same,pIC50,second compound 10 µM,< 5.00
same,"viability, T/C",[1],96.3%
same,"viability, T/C","second compound 0.0316 µM, first compound 0.1 µM",104%
same,"viability, T/C",[2],103%
same,"viability, T/C","second compound 0.0316 µM, first compound 1 µM",102%
same,"viability, T/C","second compound 0.0316 µM, first compound 3.16 µM",94.2%
same,"viability, T/C","second compound 0.0316 µM, first compound 10 µM",72%
same,"viability, T/C",[3],110%
same,"viability, T/C","second compound 0.1 µM, first compound 0.1 µM",89.6%
same,"viability, T/C",[4],100%
same,"viability, T/C","second compound 0.1 µM, first compound 1 µM",98%
same,"viability, T/C","second compound 0.1 µM, first compound 3.16 µM",95.4%
same,"viability, T/C","second compound 0.1 µM, first compound 10 µM",64.8%
same,"viability, T/C",[5],93%
same,"viability, T/C","second compound 0.316 µM, first compound 0.1 µM",107%
same,"viability, T/C",[6],94.9%
same,"viability, T/C","second compound 0.316 µM, first compound 1 µM",103%
same,"viability, T/C","second compound 0.316 µM, first compound 3.16 µM",89%
same,"viability, T/C","second compound 0.316 µM, first compound 10 µM",70.6%
same,"viability, T/C",[7],98.7%
same,"viability, T/C","second compound 1 µM, first compound 0.1 µM",100%
same,"viability, T/C",[8],102%
same,"viability, T/C","second compound 1 µM, first compound 1 µM",91.9%
same,"viability, T/C","second compound 1 µM, first compound 3.16 µM",91.6%
same,"viability, T/C","second compound 1 µM, first compound 10 µM",69.1%
same,"viability, T/C",[9],102%
same,"viability, T/C","second compound 3.16 µM, first compound 0.1 µM",86.7%
same,"viability, T/C",[10],94.9%
same,"viability, T/C","second compound 3.16 µM, first compound 1 µM",95%
same,"viability, T/C","second compound 3.16 µM, first compound 3.16 µM",80.2%
same,"viability, T/C","second compound 3.16 µM, first compound 10 µM",63.9%
same,"viability, T/C",[11],98.1%
same,"viability, T/C","second compound 10 µM, first compound 0.1 µM",85.7%
same,"viability, T/C",[12],86.3%
same,"viability, T/C","second compound 10 µM, first compound 1 µM",86.8%
same,"viability, T/C","second compound 10 µM, first compound 3.16 µM",70.3%
same,"viability, T/C","second compound 10 µM, first compound 10 µM",55.2%
CC[C@@]1(O)C(=O)OCc2c1cc1n(c2=O)Cc2cc3c(CN(C)C)c(O)ccc3nc2-1 + CN(C)c1ccc(Nc2c3ccc(NC(=O)CCN4CCCC4)cc3nc3cc(NC(=O)CCN4CCCC4)ccc23)cc1,pIC50,second compound 0.0316 µM,6.55
same,pIC50,second compound 0.1 µM,6.60
same,pIC50,second compound 0.316 µM,6.64
same,pIC50,second compound 1 µM,6.57
same,pIC50,second compound 3.16 µM,6.58
same,pIC50,second compound 10 µM,6.74
same,"viability, T/C","second compound 0.0316 µM, first compound 0.000999 µM",97.5%
same,"viability, T/C","second compound 0.0316 µM, first compound 0.00316 µM",98.9%
same,"viability, T/C","second compound 0.0316 µM, first compound 0.00999 µM",98%
same,"viability, T/C",[1],105%
same,"viability, T/C","second compound 0.0316 µM, first compound 0.0999 µM",87.9%
same,"viability, T/C",[2],45.9%
same,"viability, T/C","second compound 0.1 µM, first compound 0.000999 µM",93.5%
same,"viability, T/C","second compound 0.1 µM, first compound 0.00316 µM",101%
same,"viability, T/C","second compound 0.1 µM, first compound 0.00999 µM",101%
same,"viability, T/C",[3],101%
same,"viability, T/C","second compound 0.1 µM, first compound 0.0999 µM",87.2%
same,"viability, T/C",[4],40.5%
same,"viability, T/C","second compound 0.316 µM, first compound 0.000999 µM",113%
same,"viability, T/C","second compound 0.316 µM, first compound 0.00316 µM",94.5%
same,"viability, T/C","second compound 0.316 µM, first compound 0.00999 µM",98.5%
same,"viability, T/C",[5],105%
same,"viability, T/C","second compound 0.316 µM, first compound 0.0999 µM",85.2%
same,"viability, T/C",[6],36.4%
same,"viability, T/C","second compound 1 µM, first compound 0.000999 µM",105%
same,"viability, T/C","second compound 1 µM, first compound 0.00316 µM",100%
same,"viability, T/C","second compound 1 µM, first compound 0.00999 µM",96.2%
same,"viability, T/C",[7],101%
same,"viability, T/C","second compound 1 µM, first compound 0.0999 µM",87.4%
same,"viability, T/C",[8],44.1%
same,"viability, T/C","second compound 3.16 µM, first compound 0.000999 µM",97.9%
same,"viability, T/C","second compound 3.16 µM, first compound 0.00316 µM",86.8%
same,"viability, T/C","second compound 3.16 µM, first compound 0.00999 µM",96.7%
same,"viability, T/C",[9],95.2%
same,"viability, T/C","second compound 3.16 µM, first compound 0.0999 µM",93.1%
same,"viability, T/C",[10],41.8%
same,"viability, T/C","second compound 10 µM, first compound 0.000999 µM",90.2%
same,"viability, T/C","second compound 10 µM, first compound 0.00316 µM",91%
same,"viability, T/C","second compound 10 µM, first compound 0.00999 µM",95.8%
same,"viability, T/C",[11],85.3%
same,"viability, T/C","second compound 10 µM, first compound 0.0999 µM",74.5%
same,"viability, T/C",[12],28.1%
